According to ChEMBL document CHEMBL1155593, “Bioactive sesquiterpenes from the basidiomycete Resupinatus leightonii” (J Nat Prod, 2000):
≈ marks a conversion by molar mass, not a printed value. Calls of active or inactive are those of the source. The rule behind the calls is not given here.

How the values were obtained:
Jurkat = assay: Cytotoxicity against human Jurkat cells; type: functional, cell-based
[1] = Cytotoxicity against mouse B16-F1cells; type: functional, cell-based; conditions: B16-F1
Pyricularia grisea [2] = assay: Inhibition of chlorophenylthio-cAMP-induced appressorium formation in germinating conidia of Magnaporthe grisea P1; type: functional, organism-based
HeLa = assay: Cytotoxicity against human HeLa S3 cells; type: functional, cell-based
HL-60 = assay: Cytotoxicity against human HL60 cells; type: functional, cell-based
Pyricularia grisea [3] = assay: Inhibition of hydrophobic gel bonded surface-induced appressorium formation in germinating conidia of Magnaporthe grisea P1; type: functional, organism-based
Pyricularia grisea [4] = assay: Inhibition of 1,16-hexadecanediol-induced appressorium formation in germinating conidia of Magnaporthe grisea P1; type: functional, organism-based

SMILES | IC50 (Jurkat) | IC50 [1] | IC50 (Pyricularia grisea [2]) | IC50 (HeLa) | IC50 (HL-60) | Activity (Pyricularia grisea [3]) | Activity (Pyricularia grisea [4])
C=C[C@@](C)(O)CC/C=C(\C)CC[C@H](O)C(C)(C)O | 20 µg/mL (≈ 78 µM) | 75 µg/mL (≈ 293 µM) | 10 µg/mL (≈ 39 µM) | 75 µg/mL (≈ 293 µM) | 5 µg/mL (≈ 19.5 µM) | inactive | inactive
C/C1=C\[C@@H](O)C/C(C)=C/[C@H](O)[C@H]([C@@H](C)CO)CC1 | 20 µg/mL (≈ 78.6 µM) | > 100 µg/mL | 50 µg/mL (≈ 197 µM) | > 100 µg/mL | 10 µg/mL (≈ 39.3 µM) | inactive | inactive
